Each structure is given as a SMILES string.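 Compound exposure: 48 hours, 5 concentrations, 96-well plates. The concentration for 50% growth inhibition is given as GI50. TGI: total growth inhibition.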

Test systems include TK-10 renal; SK-MEL-28 melanoma; NCI-H23 lung; K-562 leukemia; NCI/ADR-RES ovarian; NCI-H226 lung; 786-0 renal; SK-MEL-5 melanoma; CAKI-1 renal; U251 CNS; HOP-92 NSCLC; OVCAR-3 ovarian; A498 renal; SN12C renal.
Assay in all cases: NCI-60 cell line screen, 48 h

For `CC(O)[C@@]1(c2ccccc2)CC2(CCN(C)CC2)O[C@H]1C` (stereo not given in full), the TGI with TK-10 renal, in the assay on SK-MEL-28 melanoma, with NCI-H23 lung, in the assay with K-562 leukemia, with NCI/ADR-RES ovarian and in the assay with NCI-H226 lung was greater than 100 µM in each case. Besides, the TGI in the assay with 786-0 renal, in the assay with SK-MEL-5 melanoma, in the assay on CAKI-1 renal, in the assay with U251 CNS, in the assay on HOP-92 NSCLC and in the assay on OVCAR-3 ovarian was greater than 100 µM throughout. In the assay with A498 renal, this compound displayed a TGI greater than 100 µM.

For the compound `COC(=O)C1C=CCON2CCc3c(n(S(=O)(=O)c4ccccc4)c4ccccc34)C12` (stereo not given), the TGI in the assay on TK-10 renal was greater than 100 µM; in the assay with SK-MEL-28 melanoma, greater than 100 µM; in the assay with NCI-H23 lung it was greater than 100 µM; in the assay with SN12C renal, greater than 100 µM; with K-562 leukemia, greater than 60.9 µM; with NCI-H226 lung it was greater than 91.1 µM. Moreover, the TGI in the assay on 786-0 renal is greater than 100 µM; with SK-MEL-5 melanoma, greater than 58.4 µM; in the assay with CAKI-1 renal, 98.7 µM; in the assay with U251 CNS it was greater than 42.1 µM; in the assay with HOP-92 NSCLC it was greater than 100 µM; in the assay with OVCAR-3 ovarian, greater than 100 µM. This compound also displayed a TGI in the assay with A498 renal greater than 100 µM.

On to `O=c1c2c(c1=O)-c1ccccc1CN2`, for which the TGI in the assay on TK-10 renal, in the assay with SK-MEL-28 melanoma, in the assay on NCI-H23 lung, in the assay with SN12C renal, in the assay with K-562 leukemia and in the assay on NCI-H226 lung was greater than 100 µM in each case. The TGI in the assay with 786-0 renal, in the assay with SK-MEL-5 melanoma, in the assay with CAKI-1 renal, in the assay with U251 CNS, in the assay on HOP-92 NSCLC and in the assay with OVCAR-3 ovarian was greater than 100 µM throughout. The TGI with A498 renal was greater than 100 µM.

Regarding `CCCCc1ccc(C#CC#Cc2ccc(CCCC)s2)s1`, the TGI in the assay with TK-10 renal, with NCI-H23 lung, with SN12C renal, in the assay with NCI/ADR-RES ovarian, in the assay on NCI-H226 lung and with 786-0 renal was greater than 100 µM each time. Moreover, the TGI in the assay on SK-MEL-5 melanoma, with CAKI-1 renal, in the assay with U251 CNS, in the assay on HOP-92 NSCLC, with OVCAR-3 ovarian and in the assay on A498 renal was greater than 100 µM throughout.

Regarding `CCOC(=O)C1(Br)S(=O)(=O)OCCOS1(=O)=O`, the TGI with TK-10 renal, in the assay with SK-MEL-28 melanoma, in the assay with NCI-H23 lung, in the assay on SN12C renal, with K-562 leukemia and in the assay with NCI-H226 lung was greater than 100 µM throughout. The TGI in the assay with 786-0 renal, in the assay on SK-MEL-5 melanoma, with U251 CNS, with HOP-92 NSCLC, in the assay with OVCAR-3 ovarian and in the assay with A498 renal was greater than 100 µM throughout.

On to `CCCN(CCC)C1=Nc2ccccc2-n2cnnc2C1`, for which the TGI in the assay on TK-10 renal, with SK-MEL-28 melanoma, with NCI-H23 lung, with SN12C renal, in the assay on K-562 leukemia and in the assay with NCI-H226 lung was greater than 100 µM in each case. Besides, the TGI with 786-0 renal, with SK-MEL-5 melanoma, in the assay with U251 CNS and with OVCAR-3 ovarian was greater than 100 µM in each case.

Take `C=C1Cc2cc(OC)c(OC)c(OC)c2-c2ccc(SC)c(=O)cc21`: the TGI was 6.83 µM with TK-10 renal; 7.88 µM in the assay with SK-MEL-28 melanoma; 2.11 µM in the assay with NCI-H23 lung; 1.6 µM with SN12C renal; greater than 34.8 µM with K-562 leukemia; 0.188 µM in the assay on NCI-H226 lung. In addition, the TGI with 786-0 renal was 1.8 µM; with SK-MEL-5 melanoma, 13.3 µM; with CAKI-1 renal it was 6.01 µM; with HOP-92 NSCLC, 3.7 µM; in the assay on OVCAR-3 ovarian, less than 0.01 µM; in the assay with A498 renal it was 0.421 µM.

For `CC1=CCC2CC1NC(=O)CCOCCC(=O)NC2(C)C` (stereo not given), the TGI in the assay on TK-10 renal, in the assay with SK-MEL-28 melanoma, in the assay on NCI-H23 lung, in the assay with SN12C renal, with K-562 leukemia and with NCI/ADR-RES ovarian was greater than 100 µM in each case. For the same compound, the TGI in the assay on NCI-H226 lung, with 786-0 renal, with SK-MEL-5 melanoma, in the assay on CAKI-1 renal, with U251 CNS and with HOP-92 NSCLC was greater than 100 µM each time. Moreover, the TGI with A498 renal was greater than 100 µM.

`CN(C(=O)c1ccco1)C(=S)N1CCN(c2ccccn2)CC1`: the TGI in the assay on TK-10 renal, with SK-MEL-28 melanoma, in the assay on NCI-H23 lung, in the assay with SN12C renal, in the assay on K-562 leukemia and in the assay with NCI-H226 lung was greater than 100 µM in each case. Besides, the TGI in the assay on 786-0 renal, with SK-MEL-5 melanoma, with CAKI-1 renal, in the assay on U251 CNS, with HOP-92 NSCLC and with OVCAR-3 ovarian was greater than 100 µM throughout.

Consider `O=c1c([OH2+])c(-c2ccc(O)cc2[O-])oc2cc(O)cc([O-])c12.O=c1c([OH2+])c(-c2ccc(O)cc2[O-])oc2cc(O)cc([O-])c12.[Ti+4]`, for which the TGI with TK-10 renal, in the assay with SK-MEL-28 melanoma, in the assay with NCI-H23 lung, in the assay on SN12C renal, in the assay with K-562 leukemia and in the assay with NCI-H226 lung was greater than 100 µM throughout. For the same compound, the TGI with 786-0 renal, in the assay on SK-MEL-5 melanoma, with CAKI-1 renal, with OVCAR-3 ovarian and in the assay on A498 renal was greater than 100 µM throughout. In the assay with A498 renal, the GI50 was greater than 100 µM.

Turning to `COC(=O)C1(C)NCCc2c1[nH]c1ccccc21` (stereo not given), the TGI in the assay with TK-10 renal, with SK-MEL-28 melanoma, in the assay on NCI-H23 lung, in the assay with SN12C renal, in the assay on K-562 leukemia and with 786-0 renal was greater than 100 µM in each case. The TGI with SK-MEL-5 melanoma, in the assay with CAKI-1 renal, with U251 CNS, in the assay on HOP-92 NSCLC, with OVCAR-3 ovarian and in the assay on A498 renal was greater than 100 µM throughout.

With `Cc1csc(NNC(=O)Nc2ccccc2)n1`, the TGI with SK-MEL-28 melanoma, in the assay with NCI-H23 lung, in the assay on SN12C renal, in the assay with K-562 leukemia, in the assay with NCI/ADR-RES ovarian and in the assay with NCI-H226 lung was greater than 100 µM in each case. Also, the TGI in the assay with 786-0 renal, in the assay on SK-MEL-5 melanoma, in the assay with CAKI-1 renal, in the assay with U251 CNS and with A498 renal was greater than 100 µM each time.

As to `COc1cccc(NC(=O)C(=O)C2C=CCS2(=O)=O)c1` (stereo not given), the TGI in the assay on TK-10 renal, in the assay on SK-MEL-28 melanoma, with NCI-H23 lung, in the assay on SN12C renal, with K-562 leukemia and in the assay with NCI-H226 lung was greater than 100 µM throughout. Besides, the TGI with 786-0 renal, in the assay on SK-MEL-5 melanoma, in the assay on CAKI-1 renal, in the assay with U251 CNS, in the assay on OVCAR-3 ovarian and in the assay on A498 renal was greater than 100 µM each time.

Take `N#Cc1ccc(C2NN=CC23C(=O)c2ccccc2OC3c2ccccc2)cc1` (stereo not given): the TGI in the assay with TK-10 renal is 96.3 µM; with SK-MEL-28 melanoma, greater than 100 µM; with NCI-H23 lung, greater than 100 µM; in the assay with SN12C renal it was greater than 100 µM; in the assay on K-562 leukemia, greater than 100 µM; with NCI/ADR-RES ovarian, greater than 100 µM. The TGI with NCI-H226 lung was greater than 100 µM; with 786-0 renal it was greater than 100 µM; with SK-MEL-5 melanoma it was 74.8 µM; with CAKI-1 renal it was greater than 100 µM; in the assay with U251 CNS, 55.7 µM; with OVCAR-3 ovarian, greater than 100 µM. In addition, in the assay with A498 renal, the TGI was greater than 100 µM.

For `O=c1ccnc2ccc3n[nH][nH]c3c12`, the TGI with TK-10 renal, with SK-MEL-28 melanoma, in the assay on NCI-H23 lung, in the assay on SN12C renal, in the assay with K-562 leukemia and with 786-0 renal was greater than 100 µM in each case. Besides, the TGI with SK-MEL-5 melanoma, in the assay on CAKI-1 renal, with U251 CNS, in the assay with HOP-92 NSCLC, in the assay on OVCAR-3 ovarian and with A498 renal was greater than 100 µM in each case.

As to `O=C(C/C=C/c1ccccc1)c1ccccc1`, the TGI with TK-10 renal stood at 65.6 µM; in the assay with SK-MEL-28 melanoma, 53.6 µM; in the assay on NCI-H23 lung it was 31.6 µM; in the assay with SN12C renal, 60.9 µM; in the assay with NCI/ADR-RES ovarian, 33.7 µM; in the assay with NCI-H226 lung it was 66.6 µM. Moreover, the TGI was 48.8 µM in the assay with 786-0 renal; 40.8 µM in the assay on SK-MEL-5 melanoma; 31.7 µM in the assay with CAKI-1 renal; 29.9 µM in the assay with U251 CNS; greater than 100 µM in the assay on HOP-92 NSCLC; greater than 100 µM with OVCAR-3 ovarian. Also, the TGI in the assay on A498 renal worked out at 36 µM.

For the compound `CSCCC(C(=O)O)N(CC1(O)OCC(O)C(O)C1O)N=O` (stereo not given), the TGI in the assay with TK-10 renal, in the assay on SK-MEL-28 melanoma, in the assay on NCI-H23 lung, with K-562 leukemia, with 786-0 renal and in the assay on SK-MEL-5 melanoma was greater than 100 µM each time. Further, the TGI with U251 CNS, in the assay on HOP-92 NSCLC, with OVCAR-3 ovarian and in the assay on A498 renal was greater than 100 µM each time.

For the origin of these results see PubChem BioAssay (NCI).
